Assay results: patent US10675268B2, “Somatostatin receptor subtype 4 (SSTR4) agonists” (Centrexion Therapeutics Corporation, priority 2013, dated 2020)

Assay: Metabolic stability in pooled human liver microsomes (half-life)
Type: in vitro ADME
Details: 37° C., 1 μM test compound
Description: The metabolic stability of the compounds according to the invention may be investigated as follows:
The metabolic degradation of the test compound is assayed at 37° C. with pooled human liver microsomes. The final incubation volume of 100 μl per time point contains TRIS buffer pH 7.6 at room temperature (0.1 M), magnesium chloride (5 mM), microsomal protein (1 mg/mL) and the test compound at a final concentration of 1 μM. Following a short preincubation period at 37° C., the reactions are initiated by addition of beta-nicotinamide adenine dinucleotide phosphate, reduced form (NADPH, 1 mM), and terminated by transferring an aliquot into solvent after different time points. After centrifugation (10000 g, 5 min), an aliquot of the supernatant is assayed by LC-MS/MS for the amount of parent compound. The half-life is determined by the slope of the semi-logarithmic plot of the concentration-time profile.

Half-life t1/2, >130 min:
CC(C)(NC(=O)[C@H]1[C@@H]2CNC[C@@H]21)c1n[nH]c2ccccc12 [Example 94], CC(C)(NC(=O)[C@H]1[C@@H]2CNC[C@@H]21)c1n[nH]c2c(C(F)(F)F)cccc12 [Example 110], Cc1cccc2c(C(C)(C)NC(=O)[C@H]3[C@@H]4CNC[C@@H]43)n[nH]c12 [Example 93], CCc1ccccc1OCC(C)(C)NC(=O)[C@H]1[C@@H]2CNC[C@@H]21.Cl [Example 39], Cc1cc(C2CC2)ccc1OCC(C)(C)NC(=O)[C@H]1[C@@H]2CNC[C@@H]21 [Example 65]
